Assay results: article PMC7002685, “Inhibition of vascular calcification by inositol phosphates derivatized with ethylene glycol oligomers” (Nature Communications, 2020)
Read-outs that look alike come from different tables or passages of the source.

How the values were obtained:
[1] = PK s.c. in healthy and adenine/high-phosphate-diet (uremic) rats; format: in vivo; conditions: male, Sprague-Dawley, rat, sc; for AUC(0-t): read-out: AUC0-360 (converted)
Protocol: (§1) For many drugs, the PK profile depends on the patient’s renal status. Therefore, (OEG2)2-IP4 PK profile was also determined in an adenine and high-phosphate-diet-induced rat model of uremia, in which the compound was administered after serum creatinine levels had increased by fourfold relative to baseline (Fig. 4g, h). […] Similar results were observed following s.c. administration (Supplementary Table 5).
To study PK in uremic animals, male Sprague-Dawley rats (Charles River Laboratories, L’Arbresle, France) were housed two per cage with free access to water and standard chow (rat/mouse maintenance diet, SSNIFF Spezialdiäten GmbH, Soest, Germany) and submitted to a 12-h light/dark cycle. Animals were fed a low-protein (2.5%) diet containing high phosphorus (1.3% phosphorus and 0.7% calcium) and 0.3% adenine to induce uremia (SSNIFF Spezialdiäten GmbH). Control animals were fed same diet but without adenine. Every 10 days, a sample of blood was punctured at the tail vein of each animal. Serum and urine creatinine, calcium, and phosphorus were then assessed using standard colorimetric biochemistry analysis (Cobas Mira, Roche, Basel, Switzerland). When a fourfold increase of creatinine was observed compared to control, the rat was considered uremic and suitable for PK experiments. The method was validated using eight animals on control- and adenine-supplemented diet respectively. For PK studies, on the morning of the experimental day, a catheter was inserted in the right carotid artery under halothane anesthesia. Subsequently, rats were allowed to recover for 3 h and uremic and non-uremic rats, respectively, were assigned to three groups of six rats each. […] Blood aliquots were drawn after drug administration, centrifuged, decanted, and stored at −80 °C until serum drug quantification by LC-MS, as well as analysis of serum creatinine, calcium, and phosphorus (Cobas Mira).
The bioanalytical method for (OEG2)2-IP4 in rat plasma was further optimized, qualified, and applied to the comparative PK study in adenine and high-phosphate diet-induced VC vs. vitamin D-induced VC animals. The LC-MS/MS analyses were carried out using a Dionex Ultimate RSLC ultra-high-pressure liquid chromatography (UHPLC) system (Thermo Fisher Scientific) coupled with a TSQ Quantiva^TM triple quadrupole mass spectrometer. The samples were stored at 5 °C in the autosampler prior to and during the analyses. […] Gradient elution (solvent A, 20 mM ammonium acetate in water (pH 5); solvent B, ACN) was used according to the program reported in Supplementary Table 18. The injection volume was 10 µL. MS/MS parameters (MRM acquisition, cycle time 0.2 s) for (OEG2)2-IP4 are reported in Supplementary Table 19 and the ESI source, working in negative ionization mode, applied the following parameters: static spray voltage 3000 V ion transfer tube and vaporizer temperatures at 400 and 100 °C, respectively; sheath and auxiliary gas (nitrogen) flow rates at 80 and 3 (arbitrary units). For the quantitative determination in rat plasma, product ion m/z 158.9 was selected because it provided the best sensitivity and selectivity. Calibration curve and quality control samples were prepared by adding 2 μL of working solution to 38 μL rat blank K3EDTA plasma (Biochemed, Winchester, VA) and precipitating plasma protein by addition of 120 μL of MeOH including internal standard OEG11-IP5. Samples were vortexed 1 min and centrifuged at (22,000 × g, 4 °C, 10 min). Supernatants (90 μL) were then transferred into a glass vial with insert and injected onto LC-MS/MS system. Both in adenine and high-phosphate diet-induced VC and vitamin D-induced VC rat PK samples were prepared for analysis in an analogous manner as done for spiked samples (assay volume 40 μL). The LLOQ and LOD in rat plasma for (OEG2)2-IP4 were 50 and 10 ng/mL, respectively. The ULOQ and detection was 50,000 ng/mL.

Histamine H2 = biological target: T1, Histamine H2 (Homo sapiens, UniProt P25021); assay: Off-target 239710; format: binding
T1 construct: purchased Eurofins Panlabs Discovery Services Taiwan, Ltd
T1 sequence (P25021 whole entry): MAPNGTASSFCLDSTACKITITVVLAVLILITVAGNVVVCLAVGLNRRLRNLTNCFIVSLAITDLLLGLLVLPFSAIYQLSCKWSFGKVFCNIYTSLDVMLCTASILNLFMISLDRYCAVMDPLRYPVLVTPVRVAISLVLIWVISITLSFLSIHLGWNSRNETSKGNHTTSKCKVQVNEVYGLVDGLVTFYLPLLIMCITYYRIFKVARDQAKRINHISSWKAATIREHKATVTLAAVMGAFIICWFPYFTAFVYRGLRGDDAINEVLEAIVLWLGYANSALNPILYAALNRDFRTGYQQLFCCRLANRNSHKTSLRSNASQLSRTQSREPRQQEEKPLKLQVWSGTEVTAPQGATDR
Protocol: (§2) The potential off-target activity of 10 µM (OEG2)2-IP4 was assessed against a panel of 87 enzymes, receptors, or ion channels that are used in standard safety pharmacology screens.
(§3) 3.2. Off-target screening assay
(§4) The experiments were conducted by a contract research organization (Eurofins Panlabs Discovery Services Taiwan, Ltd.) and details on the respective assays can be retrieved via the catalog number provided in Supplementary Table 11 from the company’s webpage
(§5) (https://www.eurofinsdiscoveryservices.com/). […]
(§6) At sacrifice the left tibia of animals of the rat model with dietary adenine/high-phosphate-induced uremia and VC was collected, fixed with 70% v/v EtOH and embedded in methyl methacrylate. The trabecular bone compartment is known to be the most metabolic active i.e. actively re-structured bone compartment in CKD. Therefore, histomorphometric and micro-computed tomography (µCT) analysis of bone was performed on the trabecular compartment. Tibial sections were Goldner-stained for histomorphometric analysis of the proximal metaphysis using the AxioVision Release 4.5 software, as […]
(§7) described previously5. […]

[2] = Protein binding in human plasma (ultrafiltration); format: in vitro ADME
Protocol: as §1, §3
The experiments were conducted by a contract research organization (Eurofins Panlabs Discovery Services Taiwan, Ltd.) and details on the respective assays can be retrieved via the catalog number provided in Supplementary Table 11 from the company’s webpage […]
Concentrations of unbound (OEG2)2-IP4 in ultrafiltrated fractions and total (OEG2)2-IP4 concentrations were measured using a calibration prepared in ultrafiltrated pooled plasma and non-ultrafiltrated pooled plasma, respectively and LC-MS/MS quantification as described in Methods 6.3.
At sacrifice the left tibia of animals of the rat model with dietary adenine/high-phosphate-induced uremia and VC was collected, fixed with 70% v/v EtOH and embedded in methyl methacrylate. […] The total bone area (as percentage of total tissue area), osteoid area (as percentage of total bone area), and mineralized bone area (as percentage of total tissue area) were calculated from the primary measurements. […]

[3] = biological target: T2, Serotonin (5-Hydroxytryptamine) 5-HT2B (Homo sapiens, UniProt P41595); assay: Off-target 271700; format: binding
T2 construct: purchased Eurofins Panlabs Discovery Services Taiwan, Ltd
T2 sequence (P41595 whole entry): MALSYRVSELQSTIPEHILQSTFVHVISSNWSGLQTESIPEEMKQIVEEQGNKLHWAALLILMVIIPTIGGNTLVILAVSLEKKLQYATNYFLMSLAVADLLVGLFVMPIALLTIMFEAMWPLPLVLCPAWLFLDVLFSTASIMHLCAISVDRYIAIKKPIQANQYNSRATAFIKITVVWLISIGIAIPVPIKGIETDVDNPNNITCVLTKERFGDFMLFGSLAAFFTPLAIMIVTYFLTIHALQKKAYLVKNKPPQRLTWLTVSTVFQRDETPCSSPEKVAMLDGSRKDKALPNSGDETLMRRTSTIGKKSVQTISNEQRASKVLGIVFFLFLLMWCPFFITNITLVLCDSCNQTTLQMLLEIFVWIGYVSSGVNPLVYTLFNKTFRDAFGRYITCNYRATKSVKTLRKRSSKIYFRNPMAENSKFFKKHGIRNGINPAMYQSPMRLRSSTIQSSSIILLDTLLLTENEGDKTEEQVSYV
Protocol: as §2, §3, §4, §5, §6, §7

[4] = serum, 10 mg/kg, 10 mg/kg s.c., Healthy
[5] = serum, 10 mg/kg, 10 mg/kg s.c., Uremic

COCCOCCO[C@@H]1[C@@H](OP(=O)(O)O)[C@H](OCCOCCOC)[C@@H](OP(=O)(O)O)[C@@H](OP(=O)(O)O)[C@H]1OP(=O)(O)O [(OEG2)2-IP4, 4,6-Di-O-(methoxy-diethyleneglycol)-myo-inositol-1,2,3,5-tetrakis(phosphate)]
concentration at 3 h ([1]; plasma, 10 mg/kg, Healthy, s.c., Time 3 h, individual rats, read-out: plasma concentration (Figure 4h)): 2.57 µM
AUC(0-inf) [1, 4]: 19.7 µM·h
MRT [1, 4]: 1.1 h
half-life [1, 4]: 1.32 ± 0.45 h
AUC(0-t) [1, 4]: 19.2 µM·h
AUC(0-inf) [1, 5]: 37.9 µM·h
MRT [1, 5]: 2.07 h
half-life [1, 5]: 2.05 ± 1.07 h
AUC(0-t) [1, 5]: 31.8 µM·h
Cmax ([1]; serum, 10 mg/kg s.c., Healthy): 12 ± 4 µM
inhibition at 10 µM (Histamine H2): -6%
protein-bound fraction in healthy human plasma ([2]; total measured concentration 2.8 µg/mL (4 µM)): 58%
protein-bound fraction in healthy human plasma ([2]; total measured concentration 27.5 µg/mL (39.5 µM)): 42%
inhibition at 10 µM [3]: 1%
